Measurements: publication PMC8344022, “Small-molecule inhibitor of AF9/ENL-DOT1L/AF4/AFF4 interactions suppresses malignant gene expression and tumor growth” (Theranostics, 2021)
Where two headings read alike, the source gives them in different places.

Key:
AF9-DOT1L interaction [1] = biological target: T1, AF9-DOT1L interaction (Homo sapiens, UniProt P42568); test: Alpha assay, AF9 AHD-DOT1L peptide interaction; format: binding; details: read-out: IC50, inhibition of AF9-DOT1L interaction
T1 construct: cDNA for human AF9 AHD domain (475-568) and ENL AHD domain (489-559) was synthesized; made in house; host or cells: E. coli BL21(DE3)
T1 sequence (P42568 475-568): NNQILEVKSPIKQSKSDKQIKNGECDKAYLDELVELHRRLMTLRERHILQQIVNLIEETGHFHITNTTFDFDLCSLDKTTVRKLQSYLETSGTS
Text: (§1) We developed an Alpha (amplified luminescent proximity homogeneous assay) assay to determine the binding and inhibition of the PPI between maltose-binding protein (MBP)-tagged AF9 AHD and a biotin-labeled DOT1L peptide, using AlphaLisa streptavidin donor beads and anti-MBP acceptor beads. Laser excitation to the donor beads generates singlet oxygen radicals, which can travel for <200 nm in solution and cannot reach the free acceptor beads. The PPI brings the DOT1L coated donor beads and AHD coated acceptor beads together, allowing the radicals to activate the acceptor beads and produce luminescence. […] We also developed a fluorescence polarization (FP) assay. A fluorescein-labeled DOT1L peptide has a higher freedom in solution with a lower polarization value.
(§2) Alpha assays. Alpha assays were developed using Perkin-Elmer AlphaLisa anti-MBP kit, which contains streptavidin donor beads and anti-MBP acceptor beads. The assay was performed using a MBP-protein (5 nM), a biotinylated peptide (40 nM), and increasing concentrations of a compound in 25 µL buffer (PBS with 0.5 % BSA, pH 7.5) in 384-well plates according to the manufacturer's protocol and measured with a Tecan SPARK microplate reader. Data were imported into Prism (version 5.0), and IC50 values from 3 independent experiments with standard deviation were obtained by using a standard dose-response curve fitting.

AF9-AF4 interaction = biological target: T2, AF9-AF4 interaction (Homo sapiens, UniProt P42568); test: Alpha assay, AF9-AF4 interaction; format: binding; details: read-out: IC50, inhibition of AF9-AF4 interaction
T2 construct: cDNA for human AF9 AHD domain (475-568) and ENL AHD domain (489-559) was synthesized; made in house; host or cells: E. coli BL21(DE3)
Method: ENL is also a major MLL fusion partner (~10%). The AHD domains of human ENL and AF9 share a high homology with 82% identity and 89% similarity (Figure S1A). […] Our attempts to develop an Alpha assay for ENL-DOT1L failed. […] Compound 1's activity against ENL-DOT1L was therefore not determined.
as §2

AF9-DOT1L interaction [2] = biological target: T1, AF9-DOT1L interaction; test: Fluorescence polarization (FP) inhibition assay, AF9-DOT1L; format: binding
Text: as §1
(§3) Fluorescence polarization assay. It was performed in 96-well black microplates with each well containing a Fluorescein-labeled peptide (2 nM) and increasing concentration of a AF9/ENL protein in a buffer (20 mM HEPES, pH 7.5, 0.01% Triton X-100, 100 µL) for Kd determination. For IC50 determination, a Fluorescein-labeled peptide (2 nM), AF9/ENL protein (100 nM) and increasing concentration of a compound in the same buffer were placed in each well. Upon incubation of 1h, the FP value of each well was determined using a Tecan SPARK microplate reader. Data were similarly processed to obtain Kd or IC50 values.

[3] = system: AF9/ENL-DOT1L/AF4/AFF4 interactions; test: Biochemical assays of PPIs between AF9/ENL and DOT1L/AF4/AFF4 (overall); format: binding, human; details: for IC50: range over the PPIs tested, read-out: IC50s against AF9/ENL-DOT1L/AF4/AFF4 interactions (range over PPIs)
Method: Because both FP and Alpha assays are unsuitable for studies of AF9/ENL binding kinetics, we compared the IC50s of the inhibitor with the Kds of the PPIs (Table 1).
as §2, §3

DOT1L = DOT1L (Homo sapiens, UniProt Q8TEK3); test: DOT1L enzyme inhibition; format: biochemical; details: at 100 µM (Figure S3: 30 or 100 µM)
Method: (§4) Inhibition of DOT1L, LSD1 and p300 was performed using our previously reported methods, [37], [38].
(§5) LSD1, and p300 histone acetyltransferase at 30 or 100 µM, using our previous reported methods [Ref. 36, 37,
(§6) (1 picture or pasted object on this page, not shown here)

p300 = p300 (Homo sapiens, UniProt Q09472); test: p300 histone acetyltransferase inhibition; format: biochemical; details: at 100 µM (Figure S3: 30 or 100 µM)
Method: as §4, §5, §6

HL60 cells = test: Antiproliferation assay (XTT); format: cell-based; details: Homo sapiens, HL-60, 168 h, 7-day incubation, read-out: Cytotoxicity EC50
Method: (§7) Antiproliferation assay. Proliferation inhibition assays for suspension blood cancer cells were performed using an XTT assay kit (Roche). Proliferation inhibition assays for solid tumor cell lines MCF-7, MDA-MB-231, Panc1, Panc28 were performed using an MTT assay (Sigma). The antiproliferation EC50 values were determined using Prism 5 and the reported results were the mean values of at least three independent experiments. The incubation time for compound 1 was 7 days and that for EPZ4777 was 14 days.

Jurkat cells = test: Antiproliferation assay (XTT); format: cell-based; details: Homo sapiens, 168 h, 7-day incubation, read-out: Cytotoxicity EC50
Method: as §7

Kasumi-1 cells = test: Antiproliferation assay (XTT); format: cell-based; details: Homo sapiens, 168 h, 7-day incubation, read-out: Cytotoxicity EC50
Method: as §7

MV4;11 cells = test: Antiproliferation assay (XTT); format: cell-based; details: Homo sapiens, 168 h, 7-day incubation, read-out: Cytotoxicity EC50
Method: as §7

Molm-13 cells = test: Antiproliferation assay (XTT); format: cell-based
Method: as §7

RPMI-8226 cells = test: Antiproliferation assay (XTT); format: cell-based; details: Homo sapiens, 168 h, 7-day incubation, read-out: Cytotoxicity EC50
Method: as §7

THP-1 cells = test: Antiproliferation assay (XTT); format: cell-based; details: Homo sapiens, 168 h, 7-day incubation, read-out: Cytotoxicity EC50
Method: as §7

U266 cells = test: Antiproliferation assay (XTT); format: cell-based; details: Homo sapiens, U-266, 168 h, 7-day incubation, read-out: Cytotoxicity EC50
Method: as §7

[4] = system: MV4;11 leukemia xenograft; test: Subcutaneous MV4;11 xenograft antitumor study; format: in vivo, NOD-SCID mice; details: 15 mg/kg/day i.p. for 10 days; two cohorts (N = 6 and 8; p < 0.01 and 0.05)
Method: In vivo antitumor activity of compound 1 was evaluated in a commonly used mouse model of MLL-r leukemia, [26]. 10^7 MV4;11 cells in 0.1 mL of saline and Matrigel (1:1) were injected subcutaneously into NOD-SCID mice, which can develop palpable tumors in ~2 weeks.
In vivo antitumor studies. All of the mouse studies were conducted in strict compliance with an IRB-approved protocol. NOD-SCID mice (4 to 6 weeks old, from Jackson lab) were obtained and maintained under specific pathogen-free conditions. 10^7 MV4;11 cells in medical grade saline and Matrigel (1:1, 0.1 mL) were inoculated subcutaneously and palpable tumors (2-3 mm in diameter) were developed in ~ 2 weeks. Mice were treated with compound 1 (15 mg/kg/day for 10 days) in saline (0.1 mL) administered intraperitoneally. Tumors were measured every 2 days and estimated by using the formula a×b^2/2.

p300, sequence (Q09472 whole entry, species assumed): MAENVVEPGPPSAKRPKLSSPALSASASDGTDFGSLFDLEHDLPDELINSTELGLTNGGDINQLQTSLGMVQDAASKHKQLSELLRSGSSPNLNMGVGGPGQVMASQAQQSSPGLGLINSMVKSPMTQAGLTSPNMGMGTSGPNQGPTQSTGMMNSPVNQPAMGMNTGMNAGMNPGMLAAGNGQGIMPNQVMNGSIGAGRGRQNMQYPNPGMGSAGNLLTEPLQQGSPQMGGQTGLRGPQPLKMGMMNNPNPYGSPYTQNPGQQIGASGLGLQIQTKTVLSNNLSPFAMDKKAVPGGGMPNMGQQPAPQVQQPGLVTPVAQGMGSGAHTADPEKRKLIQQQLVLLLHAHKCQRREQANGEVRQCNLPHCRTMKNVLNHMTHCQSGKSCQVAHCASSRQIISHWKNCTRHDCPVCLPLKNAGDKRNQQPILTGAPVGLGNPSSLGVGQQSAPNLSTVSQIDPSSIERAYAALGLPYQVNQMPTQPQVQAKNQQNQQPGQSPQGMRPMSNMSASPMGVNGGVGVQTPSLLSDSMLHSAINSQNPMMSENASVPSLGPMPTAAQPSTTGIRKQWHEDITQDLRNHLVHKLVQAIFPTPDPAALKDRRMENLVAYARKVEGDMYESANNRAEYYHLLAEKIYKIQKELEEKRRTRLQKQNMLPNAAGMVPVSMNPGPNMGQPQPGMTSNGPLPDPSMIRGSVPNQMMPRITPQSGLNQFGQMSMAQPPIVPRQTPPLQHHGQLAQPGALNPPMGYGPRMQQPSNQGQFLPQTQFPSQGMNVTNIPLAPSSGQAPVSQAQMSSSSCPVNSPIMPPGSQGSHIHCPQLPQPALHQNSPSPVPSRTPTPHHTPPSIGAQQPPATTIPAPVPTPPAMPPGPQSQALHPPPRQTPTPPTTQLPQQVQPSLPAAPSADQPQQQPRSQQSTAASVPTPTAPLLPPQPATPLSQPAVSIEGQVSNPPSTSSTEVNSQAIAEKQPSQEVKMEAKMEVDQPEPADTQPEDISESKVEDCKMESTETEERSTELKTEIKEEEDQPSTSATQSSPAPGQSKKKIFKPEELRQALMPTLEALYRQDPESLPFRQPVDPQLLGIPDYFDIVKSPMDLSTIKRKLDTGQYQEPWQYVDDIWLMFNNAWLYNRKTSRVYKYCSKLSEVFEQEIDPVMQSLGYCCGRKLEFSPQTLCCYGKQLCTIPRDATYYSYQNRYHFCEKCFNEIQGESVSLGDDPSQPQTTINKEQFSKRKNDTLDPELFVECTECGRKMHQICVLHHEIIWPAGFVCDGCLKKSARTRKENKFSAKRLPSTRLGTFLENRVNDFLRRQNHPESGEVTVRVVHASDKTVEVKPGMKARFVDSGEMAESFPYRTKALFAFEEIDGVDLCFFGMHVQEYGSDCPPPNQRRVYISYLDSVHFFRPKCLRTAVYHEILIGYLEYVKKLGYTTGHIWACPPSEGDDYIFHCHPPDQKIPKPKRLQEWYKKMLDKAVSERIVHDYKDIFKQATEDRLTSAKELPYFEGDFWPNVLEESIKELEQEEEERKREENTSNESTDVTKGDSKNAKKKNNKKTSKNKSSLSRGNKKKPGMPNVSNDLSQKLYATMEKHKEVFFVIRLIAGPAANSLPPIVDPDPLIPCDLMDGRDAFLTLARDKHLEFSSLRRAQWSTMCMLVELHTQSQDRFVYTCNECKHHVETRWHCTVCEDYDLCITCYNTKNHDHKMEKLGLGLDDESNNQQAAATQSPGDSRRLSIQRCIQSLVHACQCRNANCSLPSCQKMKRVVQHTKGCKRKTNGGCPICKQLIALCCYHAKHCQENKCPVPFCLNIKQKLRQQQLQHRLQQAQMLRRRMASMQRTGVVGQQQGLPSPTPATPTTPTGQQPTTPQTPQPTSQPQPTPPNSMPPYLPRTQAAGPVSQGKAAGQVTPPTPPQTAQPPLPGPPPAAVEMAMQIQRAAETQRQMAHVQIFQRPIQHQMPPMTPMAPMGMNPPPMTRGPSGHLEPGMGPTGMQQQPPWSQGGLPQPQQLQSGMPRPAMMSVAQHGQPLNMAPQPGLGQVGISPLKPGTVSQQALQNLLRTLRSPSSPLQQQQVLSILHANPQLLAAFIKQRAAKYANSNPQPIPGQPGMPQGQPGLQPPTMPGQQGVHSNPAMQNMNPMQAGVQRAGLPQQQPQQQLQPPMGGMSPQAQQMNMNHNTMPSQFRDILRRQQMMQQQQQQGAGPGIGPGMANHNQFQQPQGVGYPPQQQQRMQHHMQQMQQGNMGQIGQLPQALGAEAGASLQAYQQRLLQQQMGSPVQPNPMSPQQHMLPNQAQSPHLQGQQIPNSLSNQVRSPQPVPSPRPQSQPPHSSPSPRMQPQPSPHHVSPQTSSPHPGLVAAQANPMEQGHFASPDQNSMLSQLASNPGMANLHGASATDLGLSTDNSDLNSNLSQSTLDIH
DOT1L, sequence (Q8TEK3 1-472): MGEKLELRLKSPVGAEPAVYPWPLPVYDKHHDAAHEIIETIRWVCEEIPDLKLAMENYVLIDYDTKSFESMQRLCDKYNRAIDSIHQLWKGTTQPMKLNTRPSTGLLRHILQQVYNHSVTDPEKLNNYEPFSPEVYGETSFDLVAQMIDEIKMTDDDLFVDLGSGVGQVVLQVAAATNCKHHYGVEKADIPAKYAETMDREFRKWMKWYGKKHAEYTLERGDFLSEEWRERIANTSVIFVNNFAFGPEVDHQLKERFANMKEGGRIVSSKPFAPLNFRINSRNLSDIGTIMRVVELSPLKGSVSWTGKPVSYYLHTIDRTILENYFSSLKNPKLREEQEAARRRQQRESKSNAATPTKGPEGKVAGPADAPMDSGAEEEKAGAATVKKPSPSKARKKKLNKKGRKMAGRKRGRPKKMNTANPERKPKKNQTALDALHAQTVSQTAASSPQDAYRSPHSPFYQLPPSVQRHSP

## CC(C)(C)c1ccc(-n2cc(C(=O)NC3CCNCC3)nc2-c2ccccc2)cc1 [Compound 1]
AF9-DOT1L interaction [1]
  IC50: 3.5 µM
AF9-AF4 interaction
  IC50: 1.5 ± 0.2 µM
AF9-DOT1L interaction [2]
  IC50: 3.2 µM
[3]; comparison of IC50s with Kds of the PPIs
  Mode of inhibition: non-competitive mode of inhibition
[3]; listed as Compound-1
  IC50: 0.9 to 3.5 µM
[3]
  IC50: 0.94 to 3.5 µM
DOT1L
  Inhibition of DOT1L enzyme activity: did not significantly inhibit
p300
  Inhibition of p300 histone acetyltransferase activity: did not significantly inhibit
HL60 cells
  EC50: 7.3 ± 0.1 µM
Jurkat cells
  EC50: 9.7 ± 0.3 µM
Kasumi-1 cells
  EC50: 8.9 ± 0.3 µM
MV4;11 cells
  EC50: 4.7 ± 0.4 µM
Molm-13 cells; 10 μM, Day-2 or 3
  Inhibition of cell proliferation: did not significantly inhibit
Molm-13 cells; Homo sapiens, 10 μM, Day-5, read-out: Inhibition of cell proliferation
  inhibition at 10 µM: > 90%
Molm-13 cells; Homo sapiens, 168 h, 7-day incubation, read-out: Cytotoxicity EC50
  EC50: 4.9 ± 0.1 µM
RPMI-8226 cells
  EC50: 3.3 ± 0.1 µM
THP-1 cells
  EC50: 11.4 ± 0.6 µM
U266 cells
  EC50: 7.9 ± 0.4 µM
[4]
  Tumor growth: significantly inhibited tumor growth
